The values that follow come from US10174035B2, “6-morpholinyl-2-pyrazolyl-9H-purine derivatives and their use as PI3K inhibitors” (Daiichi Sankyo Company, Limited, priority 2015, dated 2019).

As usually defined, the IC50 is the midpoint of a concentration-inhibition curve. A word on the solubility: it is the concentration that dissolves in the medium under given conditions.

For data set [1], the target named is recombinant PI3K δ enzyme (Homo sapiens (Human), UniProt O00329). In words: In vitro enzyme assay (Kinase-Glo luminescent kinase assay), PI3Kδ. It counts as biochemical. In short, it runs like this: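 Each recombinant human PI3K isoform at 2.29 μg/mL with 60 μM PIP2 and 10 μM ATP in HEPES pH 7.4, NaCl, CHAPS, MgCl2, DTT, 2 hours at room temperature. Remaining ATP read by Kinase-Glo luminescence relative to no-enzyme blanks.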
Chain of recombinant PI3K δ enzyme (O00329 whole entry, species assumed, canonical isoform): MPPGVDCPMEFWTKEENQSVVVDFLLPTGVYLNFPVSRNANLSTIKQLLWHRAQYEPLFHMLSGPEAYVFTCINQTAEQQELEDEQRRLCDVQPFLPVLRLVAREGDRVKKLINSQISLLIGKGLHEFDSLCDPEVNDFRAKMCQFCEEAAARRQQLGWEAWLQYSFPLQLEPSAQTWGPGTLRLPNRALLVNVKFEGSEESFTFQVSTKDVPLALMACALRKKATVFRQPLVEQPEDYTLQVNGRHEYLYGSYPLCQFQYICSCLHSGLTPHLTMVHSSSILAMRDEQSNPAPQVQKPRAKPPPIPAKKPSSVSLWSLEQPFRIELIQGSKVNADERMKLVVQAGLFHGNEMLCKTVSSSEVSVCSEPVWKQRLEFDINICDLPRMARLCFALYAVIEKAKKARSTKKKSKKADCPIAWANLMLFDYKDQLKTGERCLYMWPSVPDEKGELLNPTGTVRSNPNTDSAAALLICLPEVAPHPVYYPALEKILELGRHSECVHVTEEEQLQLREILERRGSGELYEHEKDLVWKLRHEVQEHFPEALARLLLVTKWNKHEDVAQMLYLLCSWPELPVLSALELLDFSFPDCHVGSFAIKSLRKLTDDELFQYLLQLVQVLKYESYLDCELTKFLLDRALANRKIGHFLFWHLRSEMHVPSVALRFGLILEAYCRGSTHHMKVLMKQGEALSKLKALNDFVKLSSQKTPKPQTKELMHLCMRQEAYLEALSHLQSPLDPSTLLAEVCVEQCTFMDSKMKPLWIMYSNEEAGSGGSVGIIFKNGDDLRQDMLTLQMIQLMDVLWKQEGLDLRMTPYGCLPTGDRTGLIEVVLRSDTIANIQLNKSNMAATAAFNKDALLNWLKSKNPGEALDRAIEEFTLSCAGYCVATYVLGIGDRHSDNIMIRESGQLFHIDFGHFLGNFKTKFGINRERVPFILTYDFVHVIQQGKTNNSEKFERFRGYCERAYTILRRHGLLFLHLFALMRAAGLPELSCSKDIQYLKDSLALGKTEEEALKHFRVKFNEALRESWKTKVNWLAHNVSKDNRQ
Chain of recombinant PI3K δ enzyme (P27986 whole entry partner, species assumed, canonical isoform): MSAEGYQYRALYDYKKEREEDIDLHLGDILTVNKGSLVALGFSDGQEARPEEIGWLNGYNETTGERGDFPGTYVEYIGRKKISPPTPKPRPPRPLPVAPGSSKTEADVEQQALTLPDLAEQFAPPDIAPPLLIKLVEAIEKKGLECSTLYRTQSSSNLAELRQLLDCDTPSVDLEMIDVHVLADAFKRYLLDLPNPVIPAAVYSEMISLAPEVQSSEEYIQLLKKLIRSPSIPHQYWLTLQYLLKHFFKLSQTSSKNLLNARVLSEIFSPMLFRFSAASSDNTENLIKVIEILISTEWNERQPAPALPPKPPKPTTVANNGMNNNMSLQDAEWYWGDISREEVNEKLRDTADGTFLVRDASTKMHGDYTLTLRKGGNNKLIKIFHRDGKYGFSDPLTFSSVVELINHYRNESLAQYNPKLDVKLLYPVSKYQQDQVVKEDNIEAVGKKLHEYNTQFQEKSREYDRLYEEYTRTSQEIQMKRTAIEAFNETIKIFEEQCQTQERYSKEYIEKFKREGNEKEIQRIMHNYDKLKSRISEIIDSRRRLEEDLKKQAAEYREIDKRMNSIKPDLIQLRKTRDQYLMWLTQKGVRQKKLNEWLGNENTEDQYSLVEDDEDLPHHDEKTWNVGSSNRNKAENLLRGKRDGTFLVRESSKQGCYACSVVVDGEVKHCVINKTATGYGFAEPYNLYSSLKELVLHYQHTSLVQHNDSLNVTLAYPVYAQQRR
(In general: Kinase-Glo measures the ATP left after a reaction by luminescence.)

Data set [2] addresses PI3Kβ (Homo sapiens (Human), UniProt P42338). The data set can be described thus: In vitro enzyme assay (Kinase-Glo), selectivity, PI3Kβ. The conditions noted are these: enzyme 2.29 μg/mL; ATP 10 μM; PIP2 60 μM; 2 hours. The class given is biochemical. Here is the method: (§1) The Kinase-Glo luminescent kinase assay kit (from Promega) was used to measure kinase activity. In this assay, amount of ATP remaining in solution following a kinase reaction is measured. The effect of compounds on PI3Kδ inhibition was carried out by adding 2.29 μg/ml of recombinant PI3K δ enzyme (Proteros, Germany) to reaction mixture containing assay buffer (50 mM HEPES, pH 7.4, 50 mM NaCl, 0.05% CHAPS) supplemented with 10 mM MgCl2, 5 mM DTT, 60 μM Phosphatidyl inositol bisphosphate (PIP2) and 10 μM ATP in the absence or presence of different concentrations of the compounds in a final volume of 15 μl/well, in a 384 well plate. The reaction mixture was incubated for 2 hours at room temperature. At the end of incubation period the equal volume of Kinase-Glo plus (Promega, V3772), was added per well and the luminescence was measured after incubating for 10 minutes at room temperature in dark. Results were calculated by measuring the luminescence units of test samples to blanks containing no enzyme.
(§2) The compounds of the present invention were tested for their selectivity for PI3Kδ over PI3Kα, PI3Kβ and PI3Kγ following the above assay using specific recombinant enzymes (Proteros, Germany) for each kinase. Assay condition of kinase assay (PI3Kα, PI3Kβ, PI3Kγ and PI3Kδ) was as follows. Enzyme: 2.29 μg/mL; ATP: 10 μM; PIP2 substrate: 60 μM and Reaction Time: 2 hours.

For data set [3], the system named is IFN-γ release in mouse splenocytes. In words: Phytohaemagglutinin (PHA)-induced interferon (IFN)-gamma release in mouse splenocytes. Also on record: species or system C57BL/6 mouse. The note with it: Splenocyte, PHA (10 μg/ml) for 48 hours, IFN-γ by ELISA, read-out: Cell Based IC50. Here is the method:
Effect of compounds on mitogen-induced IFN-γ release in mouse splenocytes was used to evaluate their potency in cell-based assay system [Blood (2010) 115: 2203-2213; Current Protocols in Immunology (2004) 3.12.1-3.12.20].
Mouse splenocytes were obtained from the spleen of a C57BL/6 mouse and plated at a density of 0.25 million cells/well in a 96 well tissue culture plate. The effect of the compounds to inhibit IFN-γ release was evaluated by treating the splenocytes with various concentrations of the test compounds followed by stimulation with PHA (10 μg/ml) for 48 hours. The IFN-γ release in the cell culture supernatant was quantified by ELISA as per the manufacturer's protocol (BD Biosciences, #555138).
A general note: ELISA stands for enzyme-linked immunosorbent assay.

For data set [4], the target named is PI3Kα (Homo sapiens (Human), UniProt P42336). The data set can be described thus: In vitro enzyme assay (Kinase-Glo), selectivity, PI3Kα. The note with it: enzyme 2.29 μg/mL; ATP 10 μM; PIP2 60 μM; 2 hours. The class given is biochemical. On the procedure:
as §1, §2

For data set [5], the target named is PI3Kγ (Homo sapiens (Human), UniProt P48736). The data set can be described thus: In vitro enzyme assay (Kinase-Glo), selectivity, PI3Kγ. It counts as biochemical. The conditions noted are these: enzyme 2.29 μg/mL; ATP 10 μM; PIP2 60 μM; 2 hours. On the procedure:
The Kinase-Glo luminescent kinase assay kit (from Promega) was used to measure kinase activity. In this assay, amount of ATP remaining in solution following a kinase reaction is measured. […] The reaction mixture was incubated for 2 hours at room temperature. At the end of incubation period the equal volume of Kinase-Glo plus (Promega, V3772), was added per well and the luminescence was measured after incubating for 10 minutes at room temperature in dark. Results were calculated by measuring the luminescence units of test samples to blanks containing no enzyme.
The compounds of the present invention were tested for their selectivity for PI3Kδ over PI3Kα, PI3Kβ and PI3Kγ following the above assay using specific recombinant enzymes (Proteros, Germany) for each kinase. Assay condition of kinase assay (PI3Kα, PI3Kβ, PI3Kγ and PI3Kδ) was as follows.

For data set [6], the system named is eosinophil count in bronchoalveolar lavage fluid. The data set can be described thus: Ovalbumin-induced airway eosinophilia model in Brown Norway rats. It counts as in vivo. The conditions noted are these: oral; for Percent inhibition of BAL eosinophil count at 3 mg/kg: ovalbumin challenge; for ED50: bid, absolute eosinophil count in BAL fluid. On the procedure:
The protocols were followed in similar fashion as described in Clin. Exp. Immunol., 2001; 126:9-15 and J. Pharmacol. Exp. Ther., 2011; 337:145-54. Male Brown Norway rats were sensitized by intraperitoneal injection of a suspension of 1 mg of ovalbumin and 100 mg of aluminum hydroxide (in sterile 0.9% saline) on day 0 and 7. On day 14, the compounds were administered to the rats by oral gavage. One hour after oral administration, the animals were placed into a perspex chamber and exposed to an aerosol of 5% ovalbumin for ten minutes. Compounds were administered on Day 14 and Day 15 either once or twice daily. Forty-eight hours after ovalbumin challenge, the animals were euthanized and bronchoalveolar lavage fluid was collected. The cell suspensions were processed and absolute eosinophil count was enumerated.

Data set [7] can be described thus: Solubility in Japanese Pharmacopeia First Fluid (JP1) and Second Fluid (JP2). The conditions noted are these: thermodynamic from solid, room temperature. It counts as physicochemical. Here is the method: A 10 mmol/L solution of the test compound was prepared in DMSO and dispensed 100 μL of 10 mmol/L DMSO stock solutions into labeled glass tubes in duplicate, one for Japanese Pharmacopeia First Fluid (JP1) and second for Japanese Pharmacopeia Second Fluid (JP2). After evaporation of DMSO from each tube, 500 μL of JP1 and JP2 fluid were added in each tube, respectively. These tubes were sonicated for 1 minute and placed on shaker for 30 minutes with an interval of 30 seconds at every 5 minute. Tubes were placed in dark at room temperature for 1 hour and solution was filtered through membrane filter. The filtrate was diluted 2-fold and 10-fold. The resulting test solutions was analyzed and quantified against the standards using UPLC (standard preparation-10 mmol/L solution in DMSO is serially diluted with 50% aqueous acetonitrile solution to prepare 2 solutions; 100 μmol/L standard solution and 5 μmol/L standard solution).

Where [8] appears, read: enzyme 2.29 μg/mL, ATP 10 μM, PIP2 60 μM, 2 hours.
Where [9] appears, read: pH 1.2, simulated gastric fluid, Japanese Pharmacopeia First Fluid (JP1), read-out: Solubility JP1.
The mark [10] stands for this setting: pH 6.8, aqueous buffer, Japanese Pharmacopeia Second Fluid (JP2), read-out: Solubility JP2.

≈ marks a conversion by molar mass, not a printed value. Where two headings read alike, the source gives them in different places.

Chain of PI3Kα (P42336 whole entry, species assumed): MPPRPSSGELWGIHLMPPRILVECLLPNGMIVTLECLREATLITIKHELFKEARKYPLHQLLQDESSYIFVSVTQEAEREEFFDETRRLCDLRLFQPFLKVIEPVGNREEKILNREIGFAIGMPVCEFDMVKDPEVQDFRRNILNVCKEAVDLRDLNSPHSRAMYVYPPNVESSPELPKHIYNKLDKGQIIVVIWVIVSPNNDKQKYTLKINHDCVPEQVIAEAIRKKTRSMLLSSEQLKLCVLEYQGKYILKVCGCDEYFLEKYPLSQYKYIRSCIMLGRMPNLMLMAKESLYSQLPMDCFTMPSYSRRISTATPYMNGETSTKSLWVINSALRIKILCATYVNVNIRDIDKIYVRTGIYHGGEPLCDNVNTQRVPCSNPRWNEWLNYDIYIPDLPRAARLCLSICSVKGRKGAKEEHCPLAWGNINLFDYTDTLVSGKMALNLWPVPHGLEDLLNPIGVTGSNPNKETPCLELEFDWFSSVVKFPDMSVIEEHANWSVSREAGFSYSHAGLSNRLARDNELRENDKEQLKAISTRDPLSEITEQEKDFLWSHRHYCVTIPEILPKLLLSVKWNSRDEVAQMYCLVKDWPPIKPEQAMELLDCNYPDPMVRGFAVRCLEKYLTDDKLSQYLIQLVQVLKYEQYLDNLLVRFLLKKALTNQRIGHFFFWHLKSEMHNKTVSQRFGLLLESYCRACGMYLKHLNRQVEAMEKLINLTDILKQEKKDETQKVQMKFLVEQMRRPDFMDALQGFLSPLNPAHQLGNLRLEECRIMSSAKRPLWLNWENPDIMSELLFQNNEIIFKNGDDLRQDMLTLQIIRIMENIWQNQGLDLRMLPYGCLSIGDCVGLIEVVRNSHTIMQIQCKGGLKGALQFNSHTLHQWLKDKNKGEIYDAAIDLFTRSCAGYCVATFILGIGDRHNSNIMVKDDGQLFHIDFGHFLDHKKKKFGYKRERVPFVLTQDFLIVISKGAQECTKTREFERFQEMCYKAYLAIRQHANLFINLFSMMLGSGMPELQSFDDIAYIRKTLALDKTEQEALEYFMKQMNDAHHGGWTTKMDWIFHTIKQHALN
Chain of PI3Kα (P27986 whole entry partner, species assumed): as the sequence (P27986 whole entry partner, species assumed, canonical isoform) above
Chain of PI3Kβ (P42338 whole entry, species assumed): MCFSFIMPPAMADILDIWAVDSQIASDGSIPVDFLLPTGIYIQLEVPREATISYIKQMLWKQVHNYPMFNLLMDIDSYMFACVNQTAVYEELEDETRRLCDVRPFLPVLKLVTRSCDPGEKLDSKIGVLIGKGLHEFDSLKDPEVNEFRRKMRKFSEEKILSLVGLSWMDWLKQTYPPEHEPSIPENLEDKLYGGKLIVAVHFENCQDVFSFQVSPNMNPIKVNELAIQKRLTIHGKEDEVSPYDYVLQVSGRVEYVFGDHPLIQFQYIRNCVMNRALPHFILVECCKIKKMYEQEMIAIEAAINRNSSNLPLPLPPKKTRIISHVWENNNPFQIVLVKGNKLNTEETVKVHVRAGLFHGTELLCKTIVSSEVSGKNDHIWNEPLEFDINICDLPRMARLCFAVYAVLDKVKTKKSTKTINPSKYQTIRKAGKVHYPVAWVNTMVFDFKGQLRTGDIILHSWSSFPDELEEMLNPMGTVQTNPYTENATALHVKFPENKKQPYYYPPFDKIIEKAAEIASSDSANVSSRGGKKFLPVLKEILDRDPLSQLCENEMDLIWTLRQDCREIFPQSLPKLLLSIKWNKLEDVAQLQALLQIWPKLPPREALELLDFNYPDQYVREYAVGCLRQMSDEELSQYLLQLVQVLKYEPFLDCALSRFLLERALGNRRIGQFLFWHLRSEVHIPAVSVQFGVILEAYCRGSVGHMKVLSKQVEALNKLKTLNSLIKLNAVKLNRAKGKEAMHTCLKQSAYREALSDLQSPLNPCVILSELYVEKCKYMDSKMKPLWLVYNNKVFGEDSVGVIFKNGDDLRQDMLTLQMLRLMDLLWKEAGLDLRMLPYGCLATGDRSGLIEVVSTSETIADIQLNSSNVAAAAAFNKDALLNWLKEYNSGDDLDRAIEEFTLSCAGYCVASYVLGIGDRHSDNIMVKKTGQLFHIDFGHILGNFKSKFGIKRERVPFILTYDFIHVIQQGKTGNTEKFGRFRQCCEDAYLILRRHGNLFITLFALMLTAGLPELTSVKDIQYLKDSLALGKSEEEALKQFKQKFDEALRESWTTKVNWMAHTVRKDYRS
Chain of PI3Kβ (P27986 whole entry partner, species assumed): as the sequence (P27986 whole entry partner, species assumed, canonical isoform) above
Chain of PI3Kγ (P48736 whole entry, species assumed): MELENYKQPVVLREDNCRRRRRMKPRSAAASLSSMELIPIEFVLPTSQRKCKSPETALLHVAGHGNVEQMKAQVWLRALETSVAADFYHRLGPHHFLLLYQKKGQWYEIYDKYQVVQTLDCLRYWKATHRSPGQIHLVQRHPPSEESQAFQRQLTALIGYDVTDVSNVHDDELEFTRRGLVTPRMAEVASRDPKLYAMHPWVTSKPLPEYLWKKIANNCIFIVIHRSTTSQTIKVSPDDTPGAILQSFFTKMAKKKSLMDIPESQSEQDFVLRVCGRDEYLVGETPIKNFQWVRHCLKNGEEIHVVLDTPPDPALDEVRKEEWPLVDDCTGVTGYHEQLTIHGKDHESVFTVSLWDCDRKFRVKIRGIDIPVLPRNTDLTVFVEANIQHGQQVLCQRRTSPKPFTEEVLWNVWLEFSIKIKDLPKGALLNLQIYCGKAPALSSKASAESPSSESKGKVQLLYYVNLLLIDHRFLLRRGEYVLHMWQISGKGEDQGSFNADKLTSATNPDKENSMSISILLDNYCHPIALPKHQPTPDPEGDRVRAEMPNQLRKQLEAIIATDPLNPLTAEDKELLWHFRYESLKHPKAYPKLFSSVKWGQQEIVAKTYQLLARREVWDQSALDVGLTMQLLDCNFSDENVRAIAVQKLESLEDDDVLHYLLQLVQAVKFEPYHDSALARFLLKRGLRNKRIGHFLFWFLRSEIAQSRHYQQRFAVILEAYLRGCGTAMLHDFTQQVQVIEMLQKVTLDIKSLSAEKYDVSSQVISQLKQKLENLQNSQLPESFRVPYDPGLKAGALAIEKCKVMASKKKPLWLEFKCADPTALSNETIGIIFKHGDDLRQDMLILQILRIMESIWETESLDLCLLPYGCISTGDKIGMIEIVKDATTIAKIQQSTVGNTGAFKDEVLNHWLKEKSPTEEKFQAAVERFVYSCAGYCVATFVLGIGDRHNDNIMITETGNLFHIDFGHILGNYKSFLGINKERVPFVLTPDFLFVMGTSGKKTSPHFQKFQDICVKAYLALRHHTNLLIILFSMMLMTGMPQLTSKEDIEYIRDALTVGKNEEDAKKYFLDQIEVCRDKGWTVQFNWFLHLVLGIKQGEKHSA

Take `Cn1cc(-c2nc(N3CCOCC3)c3nc(C(=O)N4CCC5(CC4)COC5)[nH]c3n2)cn1` [compound 3, [2-(1-Methyl-1H-pyrazol-4-yl)-6-(morpholin-4-yl)-9H-purin-8-yl](2-oxa-7-azaspiro[3.5]non-7-yl)methanone]: the IC50 in data set [1] was 15 nM; in data set [1] (setting [8]), 15 nM; in data set [2], above 10000 nM; in data set [3] it was 55 nM; in data set [4], above 1000 nM; in data set [5], above 1000 nM. In addition, the “Percent inhibition of BAL eosinophil count at 3 mg/kg” value (from here on “Percent inhibition”) in data set [6] worked out at 46%.

For `O=C(c1nc2c(N3CCOCC3)nc(-c3cn[nH]c3)nc2[nH]1)N1CCC(N2CCOCC2)CC1` [compound 42, [4-(Morpholin-4-yl)piperidin-1-yl][6-(morpholin-4-yl)-2-(1H-pyrazol-4-yl)-9H-purin-8-yl]methanone], the solubility at 30 min is above 1510 µg/mL in data set [7] (setting [9]) and 124 µg/mL (≈ 265 µM) in data set [7] (setting [10]).

For `Cn1cc(-c2cc(N3CCOCC3)c3nc(C(=O)N4CCC(N5CCOCC5=O)CC4)[nH]c3n2)cn1` [compound 77, 4-(1-{[5-(1-Methyl-1H-pyrazol-4-yl)-7-(morpholin-4-yl)-3H-imidazo[4,5-b]pyridin-2-yl]carbonyl}piperidin-4-yl)morpholin-3-one], the 50% inhibitory concentration (IC50) in data set [1] came out at 9 nM. Further, the solubility at 30 min is 1430 µg/mL (≈ 2890 µM) in data set [7] (setting [9]) and 251 µg/mL (≈ 508 µM) in data set [7] (setting [10]).

For `Cn1cc(-c2cc(N3CCOCC3)c3nc(C(=O)N4CCC5(CC4)COC5)[nH]c3n2)cn1` [compound 78, [5-(1-Methyl-1H-pyrazol-4-yl)-7-(morpholin-4-yl)-3H-imidazo[4,5-b]pyridin-2-yl](2-oxa-7-azaspiro[3.5]non-7-yl)methanone], the IC50 is 13 nM in data set [1]; 13 nM in data set [1] (setting [8]); above 10000 nM in data set [2]; 28 nM in data set [3]; 2190 nM in data set [4]; 640 nM in data set [5]. For the same molecule, the “Percent inhibition” value in data set [6] was 45%.

On to `Cc1nn(C)cc1-c1nc2[nH]c(C(=O)N3CCC(C(C)(C)O)CC3)nc2c(N2CCOCC2)c1F` [compound 84, [5-(1,3-Dimethyl-1H-pyrazol-4-yl)-6-fluoro-7-(morpholin-4-yl)-3H-imidazo[4,5-b]pyridin-2-yl][4-(2-hydroxypropan-2-yl)piperidin-1-yl]methanone], for which, in data set [1], the IC50 was 5 nM. Also, in data set [6], the “Percent inhibition” value was determined as 26%.

For the molecule `Cc1nn(C)cc1-c1nc2c(nc(C(=O)N3CCC(N4CCOCC4)CC3)n2C)c(N2CCOCC2)c1F` [compound 87, [5-(1,3-Dimethyl-1H-pyrazol-4-yl)-6-fluoro-3-methyl-7-(morpholin-4-yl)-3H-imidazo[4,5-b]pyridin-2-yl][4-(morpholin-4-yl)piperidin-1-yl]methanone], the IC50 in data set [1] is 3 nM; in data set [1] (setting [8]), 3 nM; in data set [2], above 10000 nM; in data set [3] it was 47 nM; in data set [4] it was above 10000 nM; in data set [5], above 10000 nM. Besides, the ED50 in data set [6] was 0.8 mg/kg, bid.

Turning to `Cc1nn(C)cc1-c1cc(N2CCOCC2)c2nc(C(=O)N3CCC(N4CCOCC4)CC3)[nH]c2n1` [compound 94, [5-(1,3-Dimethyl-1H-pyrazol-4-yl)-7-(morpholin-4-yl)-3H-imidazo[4,5-b]pyridin-2-yl][4-(morpholin-4-yl)piperidin-1-yl]methanone], the IC50 in data set [1] stood at 4 nM; in data set [1] (setting [8]), 4 nM; in data set [2], 9910 nM; in data set [3] it was 11 nM; in data set [4], 971 nM; in data set [5] it was 3030 nM. For the same molecule, the solubility at 30 min in data set [7] (setting [9]) is 808 µg/mL (≈ 1630 µM); in data set [7] (setting [10]), 754 µg/mL (≈ 1520 µM).

For `Cc1nn(C)cc1-c1nc2[nH]c(C(=O)N3CCC(N4CCOCC4)CC3)nc2c(N2CCOCC2)c1F` [compound 96, [5-(1,3-Dimethyl-1H-pyrazol-4-yl)-6-fluoro-7-(morpholin-4-yl)-3H-imidazo[4,5-b]pyridin-2-yl][4-(morpholin-4-yl)piperidin-1-yl]methanone], in data set [1], the IC50 was 3 nM. Moreover, the solubility at 30 min was above 1020 µg/mL in data set [7] (setting [9]) and 424 µg/mL (≈ 827 µM) in data set [7] (setting [10]). Besides, the ED50 in data set [6] is on record as 2.5 mg/kg, bid.

With `Cc1nn(C)cc1-c1nc2[nH]c(C(=O)N3CCC(N(C)C)CC3)nc2c(N2CCOCC2)c1F` [compound 97, [4-(Dimethylamino)piperidin-1-yl][5-(1,3-dimethyl-1H-pyrazol-4-yl)-6-fluoro-7-(morpholin-4-yl)-3H-imidazo[4,5-b]pyridin-2-yl]methanone], the IC50 in data set [1] was 3 nM; in data set [1] (setting [8]), 3 nM; in data set [2], above 10000 nM; in data set [3], 183 nM; in data set [4] it was 1080 nM; in data set [5], 961 nM. Further, the results for the solubility at 30 min in data set [7] (setting [9]) and in data set [7] (setting [10]) were above 936 µg/mL and above 923 µg/mL, respectively.

For `CN(C)C1CCN(C(=O)c2nc3c(N4CCOCC4)c(F)c(-c4cnn(C)c4)nc3[nH]2)CC1` [compound 99, [4-(Dimethylamino)piperidin-1-yl][6-fluoro-5-(1-methyl-1H-pyrazol-4-yl)-7-(morpholin-4-yl)-3H-imidazo[4,5-b]pyridin-2-yl]methanone], in data set [1], the IC50 was 29 nM. Moreover, the solubility at 30 min is 816 µg/mL (≈ 1790 µM) in data set [7] (setting [9]) and 321 µg/mL (≈ 703 µM) in data set [7] (setting [10]).

Take `Cn1cc(-c2cc(N3CCOCC3)c3nc(C(=O)N4CCC(N5CCOCC5)CC4)[nH]c3n2)cn1` [compound 102, [5-(1-Methyl-1H-pyrazol-4-yl)-7-(morpholin-4-yl)-3H-imidazo[4,5-b]pyridin-2-yl][4-(morpholin-4-yl)piperidin-1-yl]methanone]: in data set [1], the IC50 was determined as 19 nM. The figures for the solubility at 30 min in data set [7] (setting [9]) and in data set [7] (setting [10]) were 932 µg/mL (≈ 1940 µM) and 560 µg/mL (≈ 1170 µM), respectively.
